Reference: ChEMBL document CHEMBL6120934, “Isolation and Characterization of Insecticidal Cyclotides from Viola communis” (J Nat Prod, 2025)
Bridge positions count the residues as written; N and C are the ends. Peptide text beside a SMILES is read from it.

test: Cytotoxicity against Spodoptera frugiperda Sf9 cells assessed as inhibition of cell viability incubated for 24 hrs by resazurin assay; assay type: toxicity, cell-based

Question: With `CC[C@H](C)[C@@H]1NC(=O)[C@H](C(C)C)NC(=O)[C@H](CO)NC(=O)[C@H](CO)NC(=O)[C@H](Cc2ccccc2)NC(=O)[C@@H]2CSSC[C@@H](C(=O)N[C@@H](Cc3ccc(O)cc3)C(=O)N[C@@H](CC(N)=O)C(=O)O)NC(=O)[C@H](C(C)C)NC(=O)[C@H](CCCCN)NC(=O)[C@H](CC(N)=O)NC(=O)[C@H](CCCCN)NC(=O)[C@@H]3CSSC[C@H](NC(=O)[C@H](CO)NC(=O)[C@H](CCC(=O)O)NC(=O)CNC(=O)[C@@H](NC(=O)[C@@H]4CCCN4C(=O)[C@@H](NC(=O)[C@H](C)NC(=O)[C@H](C)N)C(C)C)CSSC[C@H](NC(=O)CNC1=O)C(=O)N[C@@H](CO)C(=O)N3)C(=O)N[C@@H](C(C)C)C(=O)N[C@@H](Cc1c[nH]c3ccccc13)C(=O)N[C@@H]([C@@H](C)CC)C(=O)N1CCC[C@H]1C(=O)N2` (H-AAVPCGESCVWIPCFSSVIGCSCKNKVCYN-OH; disulfide 5-21, 9-23, 14-28) as the compound, how does the CC50 at 24 h read?
Answer: 160 nM

Question: With `CC[C@H](C)[C@@H]1NC(=O)[C@@H]2CSSC[C@@H](C(=O)N[C@@H](Cc3ccc(O)cc3)C(=O)N[C@@H](CCCCN)C(=O)N[C@@H](CC(N)=O)C(=O)O)NC(=O)[C@H](C(C)C)NC(=O)[C@H](CCCCN)NC(=O)[C@H](CO)NC(=O)[C@H](CCCCN)NC(=O)[C@@H]3CSSC[C@H](NC(=O)[C@H](CO)NC(=O)[C@H](CCC(=O)O)NC(=O)CNC(=O)[C@@H](NC(=O)[C@@H]4CCCN4C(=O)[C@H](CC(C)C)NC(=O)[C@@H](NC(=O)CN)[C@@H](C)O)CSSC[C@H](NC(=O)CNC(=O)[C@H](C(C)C)NC(=O)[C@H](C(C)C)NC(=O)[C@H](CO)NC(=O)[C@H](CO)NC1=O)C(=O)N[C@@H](CO)C(=O)N3)C(=O)N[C@@H](C(C)C)C(=O)N[C@@H](Cc1c[nH]c3ccccc13)C(=O)N[C@@H]([C@@H](C)CC)C(=O)N1CCC[C@H]1C(=O)N2` (H-GTLPCGESCVWIPCISSVVGCSCKSKVCYKN-OH; disulfide 5-21, 9-23, 14-28) as the compound, how does the CC50 at 24 h read?
Answer: 110 nM

Question: With `CC(C)C[C@@H]1NC(=O)CNC(=O)[C@H](CC(N)=O)NC(=O)[C@H](CCCNC(=N)N)NC(=O)[C@H]([C@@H](C)O)NC(=O)[C@@H]2CSSC[C@@H]3NC(=O)[C@H]([C@@H](C)O)NC(=O)CNC(=O)CNC(=O)[C@H](C(C)C)NC(=O)[C@@H]4CSSC[C@H](NC(=O)[C@H]([C@@H](C)O)NC(=O)[C@H](CSSC[C@H](NC(=O)[C@H](C(C)C)NC(=O)[C@@H]5CCCN5C1=O)C(=O)NCC(=O)N[C@@H](CCC(=O)O)C(=O)N[C@@H]([C@@H](C)O)C(=O)N4)NC(=O)CNC(=O)[C@@H]1CCCN1C(=O)[C@H]([C@@H](C)O)NC(=O)[C@H](CC(N)=O)NC3=O)C(=O)N[C@@H](CO)C(=O)N[C@@H](Cc1c[nH]c3ccccc13)C(=O)N1CCC[C@H]1C(=O)N[C@@H](C(C)C)C(=O)N2` as the compound, how does the CC50 at 24 h read?
Answer: 2310 nM

Question: For `CC(C)[C@H](NC(=O)[C@@H]1CCCN1C(=O)[C@H](C)NC(=O)CN)C(=O)N[C@H]1CSSC[C@@H]2NC(=O)CNC(=O)[C@@H]3CCCN3C(=O)[C@H]([C@@H](C)O)NC(=O)[C@H](CC(N)=O)NC(=O)[C@@H]3CSSC[C@@H](C(=O)N[C@@H](CO)C(=O)N[C@@H](CCCCN)C(=O)N[C@@H](CC(N)=O)C(=O)O)NC(=O)[C@H](C(C)C)NC(=O)[C@@H]4CCCN4C(=O)[C@H](Cc4c[nH]c5ccccc45)NC(=O)[C@@H]4CCCN4C(=O)[C@H](CC(=O)O)NC(=O)[C@H](CSSC[C@H](NC(=O)[C@H]([C@@H](C)O)NC(=O)[C@H](CCC(=O)O)NC(=O)CNC1=O)C(=O)N[C@@H](Cc1ccccc1)C(=O)NCC(=O)NCC(=O)N[C@@H]([C@@H](C)O)C(=O)N3)NC(=O)[C@H]([C@@H](C)O)NC2=O` (H-GAPVCGETCFGGTCNTPGCTCDPWPVCSKN-OH; disulfide 5-19, 9-21, 14-27), which CC50 at 24 h is on record?
Answer: 7610 nM
